Measured values published in patent publication US20200283384A1, “ANTIBACTERIAL COMPOUNDS AND METHODS OF USE THEREOF” (Wayne State University, priority 2016, published 2020).
In brackets after ≈: the same amount, converted by molar mass. Where two headings read alike, the source gives them in different places.

Tests used:
[1] = test system: 24 strains of S. aureus (SA1-SA24); test: Broth micro-dilution MIC against 24 strains of S. aureus; type: cell-based; conditions: for MIC: Staphylococcus aureus, read-out: Compound MIC
Protocol: Compounds were tested for their anti-bacterial activity against 56 clinical isolates including 24 clinical isolates of methicillin resistant S. aureus (MRSA) and methicillin-susceptible S. aureus (MSSA), 8 strains of Enterococcus, 8 strains of Acinetobacter baumannii, 8 strains of Klebsiella pneumoniae, and 8 strains of Pseudomonas aeruginosa using a standard broth micro-dilution method as recommended by the Clinical and Laboratory Standard Institute (CLSI, M100, s23).
HN18 HN19, and HN34 were tested by a broth micro-dilution method to determine their minimal inhibitory concentration (MIC) against 24 strains of S. aureus (SA1-SA24) (Table 2). […]. Furthermore, the results for HN18 and HN34 were consistent across four repeated experiments. […]

[2] = test system: methicillin-resistant S. aureus clinical isolates (MRSA); S. aureus (K1902); test: Plasmid curing at sub-inhibitory concentration; type: cell-based, Staphylococcus aureus
Protocol: Plasmid curing was performed per Trevors (Trevors, 1986 Plasmid curing in bacteria. FEMS Microbiology, 32: 149-157). In brief, the clinical isolate was grown in the presence of HN18 and HN34 at the specified concentration for 18 h at 35° C. and then plated on Muller Hinton agar (MHA) plates to obtain isolated colonies. The isolated colonies were then replica plated onto MHA and MHA plates containing antibiotics. […] The percentage curing efficiency was expressed as the number of colonies with cured phenotype per 100 colonies tested. For plasmid extraction, 5 ml of an overnight culture of S. aureus strain was centrifuged and cells were subjected to 1 ml lysostaphin (20 μg/ml) for 1 hour at 35° C. prior to DNA extraction. Extraction of DNA was carried using QIAprep Spin Miniprep Kit (Qiagen) per manufacturer's instruction. DNA profile analysis was carried out by electrophoresis on 1.5% agarose gel.
The methicillin-resistant S. aureus clinical isolates (MRSA) growing in the presence of sub-inhibitory concentrations of HN18 and HN34 were taken for the evaluation for the loss of plasmids as described above. A culture control without a curing agent was also maintained in the curing experiment to estimate the rate of spontaneous loss of plasmids under these conditions. HN18 and HN34 eliminated the plasmid mediated antibiotic resistance markers with varying curing efficiencies (Table 3). HN18 cured plasmids from SA1, SA2, SA7 and SA8 at frequency in the range of 13-100%. HN34 also cured plasmids from SA1, SA2, SA7 and SA8 strains with 30%-100% curing efficiency.
Plasmid curing activity of HN18 and HN34 was also evaluated in S. aureus (K1902) which is known to harbor a 5 kb plasmid with a chloramphenicol resistance gene. Along with the KSA reference strain, the plasmid curing activity was repeated for SA1 and SA2 strains which are MRSA (Table 4).

[3] = test system: S. aureus clinical isolates; test: Synergistic effect with oxacillin (oxacillin MIC alone and in presence of SIC); type: cell-based, Staphylococcus aureus
Protocol: The synergistic effect (interaction) of HN18 and HN34 with different antibiotics against S. aureus clinical isolates was studied. The oxacillin MIC values of 8 clinical isolates of Staphylococcus aureus were determined. The oxacillin MIC of the same isolates were also determined after they were exposed to SIC of HN18, HN34 (Table 5). […] Column 2 and 3 show the oxacillin MIC value of the same isolates in presence of SIC of HN18 and HN34 respectively.

[4] = Table 3, isolate SA1, at SIC, lack of growth in presence of M, Ox (4 μg/ml)
[5] = Table 3, isolate SA2, at SIC, lack of growth in presence of M, Ox (4 μg/ml)
[6] = Table 3, isolate SA3, at SIC, lack of growth in presence of M, Ox (4 μg/ml)
[7] = Table 3, isolate SA4, at SIC, lack of growth in presence of M, Ox (4 μg/ml)
[8] = Table 3, isolate SA5, at SIC, lack of growth in presence of M, Ox (4 μg/ml)
[9] = Table 3, isolate SA6, at SIC, lack of growth in presence of M, Ox (4 μg/ml)
[10] = Table 3, isolate SA7, at SIC, lack of growth in presence of M, Ox (4 μg/ml)
[11] = Table 3, isolate SA8, at SIC, lack of growth in presence of M, Ox (4 μg/ml)

For `Cc1[nH]c2ccccc2c1C(c1ccc(F)c(F)c1)c1c(C)[nH]c2ccccc12` [HN34], the “Effect against the panel of S. aureus strains” value ([1]; 24 strains SA1-SA24, broth micro-dilution) was “effective”, the MIC ([1]; isolate SA1, experiment I) was 1 µg/mL (≈ 2.59 µM) and the MIC ([1]; isolate SA1, experiment II) was 2 µg/mL (≈ 5.18 µM). For the same compound, the MIC ([1]; isolate SA1, experiment III) was 1 µg/mL (≈ 2.59 µM), the MIC ([1]; isolate SA1, experiment IV) was 1 µg/mL (≈ 2.59 µM) and the MIC ([1]; isolate SA2, experiment I) was 2 µg/mL (≈ 5.18 µM). The MIC ([1]; isolate SA2, experiment II) was 2 µg/mL (≈ 5.18 µM), the MIC ([1]; isolate SA2, experiment III) was 1 µg/mL (≈ 2.59 µM) and the MIC ([1]; isolate SA2, experiment IV) was 1 µg/mL (≈ 2.59 µM). It also gave an MIC ([1]; isolate SA3, experiment I) of 2 µg/mL (≈ 5.18 µM), an MIC ([1]; isolate SA3, experiment II) of 2 µg/mL (≈ 5.18 µM) and an MIC ([1]; isolate SA3, experiment III) of 2 µg/mL (≈ 5.18 µM). It also gave an MIC ([1]; isolate SA3, experiment IV) of 2 µg/mL (≈ 5.18 µM), an MIC ([1]; isolate SA4, experiment I) of 2 µg/mL (≈ 5.18 µM) and an MIC ([1]; isolate SA4, experiment II) of 2 µg/mL (≈ 5.18 µM). The MIC ([1]; isolate SA4, experiment III) was 2 µg/mL (≈ 5.18 µM), the MIC ([1]; isolate SA5, experiment I) was 1 µg/mL (≈ 2.59 µM) and the MIC ([1]; isolate SA5, experiment II) was 2 µg/mL (≈ 5.18 µM). For the same compound, the MIC ([1]; isolate SA5, experiment III) was 1 µg/mL (≈ 2.59 µM), the MIC ([1]; isolate SA5, experiment IV) was 2 µg/mL (≈ 5.18 µM) and the MIC ([1]; isolate SA6, experiment I) was 1 µg/mL (≈ 2.59 µM). It also gave an MIC ([1]; isolate SA6, experiment II) of 1 µg/mL (≈ 2.59 µM), an MIC ([1]; isolate SA6, experiment III) of 1 µg/mL (≈ 2.59 µM) and an MIC ([1]; isolate SA6, experiment IV) of 1 µg/mL (≈ 2.59 µM). The MIC ([1]; isolate SA7, experiment I) was 1 µg/mL (≈ 2.59 µM), the MIC ([1]; isolate SA7, experiment II) was 1 µg/mL (≈ 2.59 µM) and the MIC ([1]; isolate SA7, experiment III) was 1 µg/mL (≈ 2.59 µM). The MIC ([1]; isolate SA7, experiment IV) was 1 µg/mL (≈ 2.59 µM), the MIC ([1]; isolate SA8, experiment I) was 2 µg/mL (≈ 5.18 µM) and the MIC ([1]; isolate SA8, experiment II) was 2 µg/mL (≈ 5.18 µM). The MIC ([1]; isolate SA8, experiment III) was 2 µg/mL (≈ 5.18 µM), the MIC ([1]; isolate SA8, experiment IV) was 2 µg/mL (≈ 5.18 µM) and the MIC ([1]; isolate SA9, experiment I) was 0.5 µg/mL (≈ 1.29 µM). The MIC ([1]; isolate SA10, experiment I) was 1 µg/mL (≈ 2.59 µM), the MIC ([1]; isolate SA11, experiment I) was 1 µg/mL (≈ 2.59 µM) and the MIC ([1]; isolate SA12, experiment I) was 1 µg/mL (≈ 2.59 µM). It also gave an MIC ([1]; isolate SA13, experiment I) of 1 µg/mL (≈ 2.59 µM), an MIC ([1]; isolate SA14, experiment I) of 0.25 µg/mL (≈ 0.647 µM) and an MIC ([1]; isolate SA15, experiment I) of 1 µg/mL (≈ 2.59 µM). For the same compound, the MIC ([1]; isolate SA16, experiment I) was 1 µg/mL (≈ 2.59 µM), the MIC ([1]; isolate SA17, experiment I) was 1 µg/mL (≈ 2.59 µM) and the MIC ([1]; isolate SA18, experiment I) was 1 µg/mL (≈ 2.59 µM). It also gave an MIC ([1]; isolate SA19, experiment I) of 1 µg/mL (≈ 2.59 µM), an MIC ([1]; isolate SA20, experiment I) of 2 µg/mL (≈ 5.18 µM) and an MIC ([1]; isolate SA21, experiment I) of 1 µg/mL (≈ 2.59 µM). The MIC ([1]; isolate SA22, experiment I) was 1 µg/mL (≈ 2.59 µM), the MIC ([1]; isolate SA23, experiment I) was 1 µg/mL (≈ 2.59 µM) and the MIC ([1]; isolate SA24, experiment I) was 1 µg/mL (≈ 2.59 µM). For the same compound, the “Plasmid band in agarose gel of cured derivatives” value ([2]; S. aureus K1902, FIG. 3) was “absent”, the “Susceptibility of isolates after exposure to SIC” value ([2]; SA1 and SA2 to oxacillin, KSA to chloramphenicol) was “became susceptible” and the “Curing efficiency I” value [2, 4] was 100%. For the same compound, the “Curing efficiency II” value [2, 4] was 100%, the “Curing efficiency I” value [2, 5] was 100% and the “Curing efficiency II” value [2, 5] was 70%. For the same compound, the “Curing efficiency I” value [2, 6] was 0%, the “Curing efficiency II” value [2, 6] was 0% and the “Curing efficiency I” value [2, 7] was 100%. For the same compound, the “Curing efficiency II” value [2, 7] was 0%, the “Curing efficiency I” value [2, 8] was 0% and the “Curing efficiency II” value [2, 8] was 0%. The “Curing efficiency I” value [2, 9] was 0%, the “Curing efficiency II” value [2, 9] was 0% and the “Curing efficiency I” value [2, 10] was 50%. The “Curing efficiency II” value [2, 10] was 30%, the “Curing efficiency I” value [2, 11] was 40% and the “Curing efficiency II” value [2, 11] was 63.33%. The “Curing efficiency (%)” value ([2]; Table 4, KSA (S. aureus K1902), experiment I, lack of growth in presence of Cm (10 μg/ml)) was 33.3%, the “Curing efficiency (%)” value ([2]; Table 4, KSA (S. aureus K1902), experiment II, lack of growth in presence of Cm (10 μg/ml)) was 50% and the “Curing efficiency (%)” value ([2]; Table 4, isolate SA1, experiment I, lack of growth in presence of M, Ox (4 μg/ml)) was 100%. The “Curing efficiency (%)” value ([2]; Table 4, isolate SA2, experiment I, lack of growth in presence of M, Ox (4 μg/ml)) was 96.6%, the “Synergistic activity in combination with oxacillin” value ([3]; S. aureus clinical isolates, compound at SIC) was “did not show synergistic activity” and the “Oxacillin MIC in presence of SIC of the compound (1 μg/ml)” value (shortened to “Oxacillin MIC in presence”) ([3]; isolate SA3, experiment I) was over 16 µg/mL. For the same compound, the “Oxacillin MIC in presence” value ([3]; isolate SA3, experiment II) was over 16 µg/mL, the “Oxacillin MIC in presence” value ([3]; isolate SA4, experiment I) was over 16 µg/mL and the “Oxacillin MIC in presence” value ([3]; isolate SA4, experiment II) was over 16 µg/mL. For the same compound, the “Oxacillin MIC in presence” value ([3]; isolate SA5, experiment I) was 16 µg/mL, the “Oxacillin MIC in presence” value ([3]; isolate SA5, experiment II) was over 16 µg/mL and the “Oxacillin MIC in presence” value ([3]; isolate SA9, experiment I) was over 16 µg/mL. For the same compound, the “Oxacillin MIC in presence” value ([3]; isolate SA9, experiment II) was over 16 µg/mL, the “Oxacillin MIC in presence” value ([3]; isolate SA10, experiment I) was 16 µg/mL and the “Oxacillin MIC in presence” value ([3]; isolate SA10, experiment II) was 16 µg/mL. For the same compound, the “Oxacillin MIC in presence” value ([3]; isolate SA11, experiment I) was 16 µg/mL, the “Oxacillin MIC in presence” value ([3]; isolate SA11, experiment II) was 8 µg/mL and the “Oxacillin MIC in presence” value ([3]; isolate SA15, experiment I) was 16 µg/mL. For the same compound, the “Oxacillin MIC in presence” value ([3]; isolate SA15, experiment II) was over 16 µg/mL, the “Oxacillin MIC in presence” value ([3]; isolate SA18, experiment I) was over 16 µg/mL and the “Oxacillin MIC in presence” value ([3]; isolate SA18, experiment II) was over 16 µg/mL.
